The results in this text go back to patent publication US20240301408A1, “MICRORNA 195 COMPOSITIONS AND METHODS FOR TREATING COGNITIVE IMPAIRMENT” (UNITED STATES GOVERNMENT AS REPRESENTED BY THE DEPARTMENT …, priority 2021, published 2024).

The subject of series [1] is ApoE. Description: brain ApoE levels in ApoE KI mice after miR-195 over-expression. The following applies: ApoE4+/+ or ApoE3+/+ mouse brains. The class given is in vivo. The procedure: Stereotaxic injection and behavior studies. Eight to nine weeks old male and female ApoE3^+/+ and ApoE4^+/+ KI mice without 5×FAD background (N=19-23/group), or with 5×FAD background (N=15-17/group) were placed in the stereotaxic apparatus with AAV2 or scramble virus administered into the dorsal CA1 regions of bilateral hippocampal brain regions using pressure injection (Labonte B et al., Nat Med 2017, and Passini M A et al., The Journal of neuroscience 2006). Injection volumes (0.5-2.0 μl) were delivered over 10 min to avoid tissue damage. […]
(§1) Brain and neuronal sample preparation and biochemical analysis. […] Levels of Aβ42, Aβ40, pTau, Tau and ApoE were determined using high-sensitive ELISA kits. […]
(§2) Statistical analysis. […] Levels of miR-195-5p and miR-374 were normalized to U6 and RNU6B (internal controls) while synj1 mRNA normalized to GAPDH and 18s, and then expressed as Log2fold of changes when compared to controls. Levels of synj1, dyn1, pTau, Tau, and holoAPP were normalized to β-actin levels and expressed as a percentage of the control. Absolute Aβ42, Aβ40, pTau, Tau, and ApoE concentrations were quantitatively determined by ELISA and expressed as a percentage of the control. […] Pearson correlation coefficients were calculated to determine the linear relationship between the two variables. […]

Series [2] concerns dynamin 1 (dyn1). The experiment in a line: dynamin 1 protein levels in cultured neurons after AAV2 miRNA over-expression. The class given is cell-based, mouse. To be noted: neurons over-expressing miRNA; N=4/group. The procedure:
Mouse Neuronal and human iPSC culture. Primary cortical neurons were cultured (Zhu L et al., Proc Natl Acad Sci USA 2015, and Zhu L et al., J Biol Chem 2013) before being fixed and stained for confocal microscopy analysis (Zeiss LSM) (Berg I et al., Nat Protoc 2010). In some conditions, bovine serum albumin (BSA) or receptor-associated protein (RAP) was included in the cultured media (N=3/group). Alternatively, cultured neurons were transfected with adeno-associated virus 2 (AAV2)-containing miR-195-5p or miR-374 or scramble controls for 5 days before subjected to analysis. […]
as §1, §2

In the case of “UAGCAGCACAGAAAUAUUGGC (chemistry not given here) [miR-195-5p, over-expressed via AAV2-containing miR-195-5p from ABM Inc]”, the ApoE levels result in series [1] is “No significant changes”; in series [1] (listed as miR-195), “no significant changes”. Moreover, the dyn protein levels in series [2] is 97.7 % of controls.
